Experimental data published in patent publication US6015838A, “Aqueous film-forming foam compositions” (3M Innovative Properties Company, priority 1996, dated 2000).

Assay: Surface tension and critical micelle concentration (CMC) of aqueous surfactant solutions
Format: physicochemical
Conditions: Table 3; deionized water
Excerpt: Critical Micelle Concentration (CMC): The critical micelle concentration is defined as the concentration at which further surface tension is no longer lowered with increasing levels of surfactant. […] Surface tension is then plotted vs. log concentration and the data points are connected. The resulting curve has a nearly horizontal flat portion at concentrations above the CMC and has a negative steep slope at concentrations below the CMC. The CMC is defined as the lowest surfactant concentration in the horizontal flat portion of the curve.
(§1) Then the critical micelle concentration (CMC) was determined for each surfactant.
as §1

Compound	CMC	solubility
O=C([O-])CC[N+]1(CCCNC(=O)C(F)(C(F)(F)F)C(F)(F)C(F)(F)C(F)(F)C(F)(F)C(F)(F)C(F)(F)C(F)(F)F)CCOCC1 (stereo not drawn) [Example K3]	1000 ppm	
O=C(NCCC[N+]1(CCO)CCOCC1)C(F)(C(F)(F)F)C(F)(F)C(F)(F)C(F)(F)C(F)(F)C(F)(F)C(F)(F)C(F)(F)F (stereo not drawn) [Example F5]	1000 ppm	
O=C(NCCC[N+]1([O-])CCOCC1)C(F)(C(F)(F)F)C(F)(F)C(F)(F)C(F)(F)C(F)(F)C(F)(F)C(F)(F)C(F)(F)F (stereo not drawn) [Example E9]		low solub.
C[N+](C)([O-])CCCNC(=O)C(F)(C(F)(F)C(F)(F)C(F)(F)F)C(F)(F)C(F)(F)C(F)(F)C(F)(F)C(F)(F)C(F)(F)C(F)(F)F (stereo not drawn) [Example E7, C7 F15 CF(C3 F7)CONH(CH2)3 N^+ (CH3)2 O^-]		low solub.

Same assay, conditions: Table 3; deionized water, at CMC

Compound	Surf Tens. (surface tension at the CMC)
O=C(NCCOC(=O)C(F)(C(F)(F)F)C(F)(F)C(F)(F)C(F)(F)C(F)(F)C(F)(F)C(F)(F)F)c1cc[n+]([O-])cc1 (stereo not drawn) [Example E11]	15.5 dynes/cm
C[N+](C)([O-])CCCNC(=O)C(F)(C(F)(F)F)C(F)(F)C(F)(F)C(F)(F)C(F)(F)C(F)(F)C(F)(F)F (stereo not drawn) [Example E3, C6 F13 CF(CF3)CONH(CH2)3 N^+ (CH3)2 O^-]	16.6 dynes/cm
O=C([O-])CC[N+]1(CCCNC(=O)C(F)(C(F)(F)F)C(F)(F)C(F)(F)C(F)(F)C(F)(F)C(F)(F)C(F)(F)C(F)(F)F)CCOCC1 (stereo not drawn) [Example K3]	19.2 dynes/cm
C[N+](C)(CCO)CCCNC(=O)C(F)(C(F)(F)F)C(F)(F)C(F)(F)C(F)(F)C(F)(F)C(F)(F)C(F)(F)C(F)(F)F (stereo not drawn) [Example F4]	19.0 dynes/cm
C8 F17 CF(CF3)CO(OCH2 CH2)16 OCH3 [Example J1]	22 dynes/cm
O=C(NCCC[N+]1(CCO)CCOCC1)C(F)(C(F)(F)F)C(F)(F)C(F)(F)C(F)(F)C(F)(F)C(F)(F)C(F)(F)C(F)(F)F (stereo not drawn) [Example F5]	20.8 dynes/cm
CN(C)CCCN(CCCN(C)C)C(=O)C(F)(C(F)(F)F)C(F)(F)C(F)(F)C(F)(F)C(F)(F)C(F)(F)C(F)(F)C(F)(F)F (stereo not drawn) [Example F9, C7 F15 CF(CF3)CON[C3 H6 N^+ (CH3)2 H]2 2[^- OOCCH3]]	22.0 dynes/cm
C[n+]1ccc(C(=O)NCCOC(=O)C(F)(C(F)(F)F)C(F)(F)C(F)(F)C(F)(F)C(F)(F)C(F)(F)C(F)(F)F)cc1 (stereo not drawn) [Example F2]	15.5 dynes/cm
C[N+](C)([O-])CCCNC(=O)C(F)(C(F)(F)F)C(F)(F)C(F)(F)C(F)(F)C(F)(F)C(F)(F)C(F)(F)C(F)(F)F (stereo not drawn) [Example E1, C7 F15 CF(CF3)CONH(CH2)3 N^+ (CH3)2 O^-]	16.3 dynes/cm
C[N+](C)([O-])CCCNC(=O)C(F)(C(F)(F)F)C(F)(F)C(F)(F)C(F)(F)C(F)(F)C(F)(F)C(F)(F)C(F)(F)C(F)(F)C(F)(F)C(F)(F)F (stereo not drawn) [Example E5, C10 F21 CF(CF3)CONH(CH2)3 N^+ (CH3)2 O^-]	17.1 dynes/cm
C[N+](C)([O-])CCCN(CCO)C(=O)C(F)(C(F)(F)F)C(F)(F)C(F)(F)C(F)(F)C(F)(F)C(F)(F)C(F)(F)C(F)(F)F (stereo not drawn) [Example E8, C7 F15 CF(CF3)CON(C2 H4 OH)(CH2)3 N^+ (CH3)2 O^-]	16.6 dynes/cm
C[N+](C)([O-])CCCNC(=O)C(F)(C(F)(F)F)C(F)(F)C(F)(F)C(F)(F)C(F)(F)C(F)(F)C(F)(F)C(F)(F)C(F)(F)F (stereo not drawn) [Example E4, C8 F17 CF(CF3)CONH(CH2)3 N^+ (CH3)2 O^-]	16.5 dynes/cm
O=C(OCCc1cccc[n+]1[O-])C(F)(C(F)(F)F)C(F)(F)C(F)(F)C(F)(F)C(F)(F)C(F)(F)C(F)(F)C(F)(F)F (stereo not drawn) [Example E13]	15.0 dynes/cm
C[N+](C)(CCO)CCCNC(=O)C(F)(C(F)(F)F)C(F)(F)C(F)(F)C(F)(F)C(F)(F)C(F)(F)F (stereo not drawn) [Example F3]	17.0 dynes/cm
O=C(OCCc1cccc[n+]1[O-])C(F)(C(F)(F)F)C(F)(F)C(F)(F)C(F)(F)C(F)(F)C(F)(F)C(F)(F)F (stereo not drawn) [Example E12]	18.3 dynes/cm
O=C(NCCOC(=O)C(F)(C(F)(F)F)C(F)(F)C(F)(F)C(F)(F)C(F)(F)C(F)(F)C(F)(F)C(F)(F)F)c1cc[n+]([O-])cc1 (stereo not drawn) [Example E10]	14.5 dynes/cm
C[n+]1ccc(C(=O)NCCOC(=O)C(F)(C(F)(F)F)C(F)(F)C(F)(F)C(F)(F)C(F)(F)C(F)(F)C(F)(F)C(F)(F)F)cc1 (stereo not drawn) [Example F1]	15.0 dynes/cm
C[N+](C)(CCCN(CCC[N+](C)(C)CCC(=O)[O-])C(=O)C(F)(C(F)(F)F)C(F)(F)C(F)(F)C(F)(F)C(F)(F)C(F)(F)C(F)(F)C(F)(F)F)CCC(=O)[O-] (stereo not drawn) [Example K4]	23.6 dynes/cm
C[N+](C)([O-])CCCNC(=O)C(F)(C(F)(F)F)C(F)(F)C(F)(F)C(F)(F)C(F)(F)C(F)(F)F (stereo not drawn) [Example E2, C5 F11 CF(CF3)CONH(CH2)3 N^+ (CH3)2 O^-]	17.5 dynes/cm
C[N+](C)(CCCNC(=O)C(F)(C(F)(F)F)C(F)(F)C(F)(F)C(F)(F)C(F)(F)C(F)(F)C(F)(F)C(F)(F)F)CCC(=O)[O-] (stereo not drawn) [Example K1, C7 F15 CF(CF3)CONH(CH2)3 N^+ (CH3)2 C2 H4 COO^-]	16.6 dynes/cm
C6 F13 CF(CF3)CON(C3 H6 SO3^-)(CH2)3 N^+ (CH3)2 H [Example K2]	20.3 dynes/cm

Same assay, conditions: Table 5; deionized water, at CMC

Compound	Surf. Tens. (surface tension at the CMC)
O=C(O)C(F)(C(F)(F)F)C(F)(F)C(F)(F)C(F)(F)C(F)(F)C(F)(F)C(F)(F)F (stereo not drawn) [Example M22, C6 F13 CF(CF3)COO^- K^+]	17.5 dynes/cm
O=C(O)C(F)(C(F)(F)F)C(F)(F)C(F)(F)C(F)(F)C(F)(F)C(F)(F)C(F)(F)C(F)(F)F (stereo not drawn) [Example M20, C7 F15 CF(CF3)COO^- H3 N^+ C2 H4 OH]	15.0 dynes/cm
O=C(O)C(F)(C(F)(F)F)C(F)(F)C(F)(F)C(F)(F)C(F)(F)C(F)(F)C(F)(F)C(F)(F)C(F)(F)C(F)(F)C(F)(F)F (stereo not drawn) [Example M18, C10 F21 CF(CF3)COO^- H4 N^+]	14.8 dynes/cm
O=C(O)C(F)(C(F)(F)F)C(F)(F)C(F)(F)C(F)(F)C(F)(F)C(F)(F)C(F)(F)C(F)(F)F (stereo not drawn) [Example M26, C7 F15 CF(CF3)COO^- Na^+]	19.4 dynes/cm
O=C(O)C(F)(C(F)(F)F)C(F)(F)C(F)(F)C(F)(F)C(F)(F)C(F)(F)F (stereo not drawn) [Example M21, C5 F11 CF(CF3)COO^- K^+]	22.5 dynes/cm
O=C(O)C(F)(C(F)(F)F)C(F)(F)C(F)(F)C(F)(F)C(F)(F)C(F)(F)F (stereo not drawn) [Example M15, C5 F11 CF(CF3)COO^- H4 N^+]	22.1 dynes/cm
O=C(O)C(F)(C(F)(F)F)C(F)(F)C(F)(F)C(F)(F)C(F)(F)C(F)(F)C(F)(F)C(F)(F)F (stereo not drawn) [Example M23, C7 F15 CF(CF3)COO^- K^+]	15.0 dynes/cm
O=C(O)C(F)(C(F)(F)F)C(F)(F)C(F)(F)C(F)(F)C(F)(F)C(F)(F)C(F)(F)F (stereo not drawn) [Example M25, C6 F13 CF(CF3)COO^- Na^+]	19.8 dynes/cm
O=C(O)C(F)(C(F)(F)F)C(F)(F)C(F)(F)C(F)(F)C(F)(F)C(F)(F)C(F)(F)C(F)(F)F (stereo not drawn) [Example M30, C7 F15 CF(CF3)COO^- 1/2[H3 N^+ C2 H4 NHC2 H4 N^+ H3]]	16.2 dynes/cm
O=C(O)C(F)(C(F)(F)F)C(F)(F)C(F)(F)C(F)(F)C(F)(F)C(F)(F)C(F)(F)C(F)(F)F (stereo not drawn) [Example M27, C7 F15 CF(CF3)COO^- Li^+]	24.1 dynes/cm
O=C(O)C(F)(C(F)(F)F)C(F)(F)C(F)(F)C(F)(F)C(F)(F)C(F)(F)C(F)(F)C(F)(F)C(F)(F)F (stereo not drawn) [Example M24, C8 F17 CF(CF3)COO^- K^+]	16.4 dynes/cm

Assay: Thermogravimetric analysis of neat perfluorocarboxylate salts
Format: physicochemical
Conditions: neat salt, 10° C./min, nitrogen
Excerpt: Thermal degradation measurements were made on a series of neat perfluorocarboxylate salts, including several ax-branched open chain structures (Examples N2-N9), a primarily linear open chain structure (Example N10--Fluorad™ FC-143 Fluorochemical Surfactant, commercially available from 3M Company, St. Paul, Minn.), and a closed chain (i.e., cyclic) structure (Example N11--made by the electrochemical fluorination of benzoic acid and hydrolysis in the presence of KOH, as described in U.S. Pat. No. 2,567,011 (Diesslin et al.)).
The perfluorocarboxylate salts were tested using a Perkin-Elmer TGA 7 thermogravimetric analysis apparatus and a salt sample size of approximately 5 mg, a heating rate of 10° C./min, and a nitrogen gas flow rate of 40-45 mL/min. Using the TGA 7 software, the following temperatures were recorded: (1) the onset temperature of decomposition, (2) the temperature at which 50% of the sample weight was lost, and (3) the temperature at which 90% of the sample weight was lost.

Compound	onset temperature of decomposition	temperature for 50% loss	temperature for 90% loss
O=C(O)C(F)(C(F)(F)C(F)(F)F)C(F)(F)C(F)(F)C(F)(F)C(F)(F)C(F)(F)C(F)(F)F (stereo not drawn) [Example M19, C6 F13 CF(C2 F5)COO^- H4 N^+]	153 °C	171 °C	188 °C
O=C(O)C(F)(C(F)(F)F)C(F)(F)C(F)(F)C(F)(F)C(F)(F)C(F)(F)C(F)(F)C(F)(F)C(F)(F)C(F)(F)C(F)(F)F (stereo not drawn) [Example M18, C10 F21 CF(CF3)COO^- H4 N^+]	164 °C	181 °C	188 °C
O=C(O)C1(F)C(F)(F)C(F)(F)C(F)(F)C(F)(F)C1(F)F [reference compound]	100 °C	110 °C	120 °C

Same assay, conditions: neat salt, 10° C./min, nitrogen; listed as N2

Compound	onset temperature of decomposition	temperature for 50% loss	temperature for 90% loss
O=C(O)C(F)(C(F)(F)F)C(F)(F)C(F)(F)C(F)(F)C(F)(F)C(F)(F)F (stereo not drawn) [Example M15, C5 F11 CF(CF3)COO^- H4 N^+]	166 °C	178 °C	188 °C

Same assay, conditions: neat salt, 10° C./min, nitrogen; listed as N8

Compound	onset temperature of decomposition	temperature for 50% loss	temperature for 90% loss
O=C(O)C(F)(C(F)(F)F)C(F)(F)C(F)(F)C(F)(F)C(F)(F)C(F)(F)F (stereo not drawn) [Example M28, C5 F11 CF(CF3)COO^- Na^+]	236 °C	250 °C	263 °C

Same assay, conditions: neat salt, 10° C./min, nitrogen; listed as N9

Compound	onset temperature of decomposition	temperature for 50% loss
O=C(O)C(F)(C(F)(F)F)C(F)(F)C(F)(F)C(F)(F)C(F)(F)C(F)(F)F (stereo not drawn) [Example M21, C5 F11 CF(CF3)COO^- K^+]	167 °C	178 °C

Same assay, conditions: neat salt; stopped at 85% weight loss as remaining salt, KF, is not volatile

Compound	temperature for 90% loss (stopped at 85% weight loss)
O=C(O)C(F)(C(F)(F)F)C(F)(F)C(F)(F)C(F)(F)C(F)(F)C(F)(F)F (stereo not drawn) [Example M21, C5 F11 CF(CF3)COO^- K^+]	188 °C
